Laboratory results taken from the NIST ThermoML archive (doi:10.1021/acs.jced.8b00212).

Conditions: Fluid (supercritical or subcritical phases), Brillouin light scattering

CCCCCCC [heptane]
Conditions | speed of sound [m/s]
513.4 K, 8000 kPa | 451.65
513.58 K, 6000 kPa | 394.15
513.59 K, 3000 kPa | 293.56
513.65 K, 4000 kPa | 333.84
513.92 K, 2500 kPa | 266.66
515.23 K, 5000 kPa | 363.89
515.3 K, 10000 kPa | 481.16
521.41 K, 5000 kPa | 337.01
523.19 K, 10000 kPa | 459.31
523.83 K, 3000 kPa | 242.56
524.25 K, 4000 kPa | 291.43
524.62 K, 6000 kPa | 357.73
524.62 K, 8000 kPa | 417.84
525.23 K, 2500 kPa | 196.31
528.41 K, 3000 kPa | 218.56
528.9 K, 4000 kPa | 269.01
528.93 K, 2500 kPa | 167.01
528.95 K, 8000 kPa | 403.55
529.1 K, 6000 kPa | 344.17
532.76 K, 3000 kPa | 193.81
533.4 K, 10000 kPa | 437.12
533.55 K, 4000 kPa | 252.16
533.57 K, 8000 kPa | 391.25
533.77 K, 6000 kPa | 331.99
534.12 K, 2500 kPa | 121.38
534.45 K, 5000 kPa | 293.97
537.58 K, 4000 kPa | 231.06
538.13 K, 2500 kPa | 101.28
538.36 K, 3000 kPa | 152.7
538.84 K, 8000 kPa | 376.34
539.09 K, 6000 kPa | 316.72
541.47 K, 4000 kPa | 208.26
542.55 K, 8000 kPa | 364.39
543.16 K, 10000 kPa | 413.25
543.5 K, 5000 kPa | 262.34
543.6 K, 6000 kPa | 300.59
544.09 K, 2500 kPa | 100.71
544.95 K, 3000 kPa | 115.6
547.02 K, 2500 kPa | 107.6
548.66 K, 8000 kPa | 346.4
548.98 K, 6000 kPa | 283.97
549.04 K, 3000 kPa | 105.27
549.16 K, 4000 kPa | 178.39
552.59 K, 2500 kPa | 118.66
553.05 K, 6000 kPa | 270.32
553.19 K, 8000 kPa | 335.76
553.2 K, 10000 kPa | 388.87
553.42 K, 5000 kPa | 225.17
553.43 K, 4000 kPa | 160.12
553.93 K, 3000 kPa | 110.64
557.81 K, 8000 kPa | 325.48
557.86 K, 6000 kPa | 255.8
559.74 K, 3000 kPa | 116.03
559.91 K, 2500 kPa | 129.19
560.41 K, 4000 kPa | 132.63
563.03 K, 10000 kPa | 363.89
563.09 K, 3000 kPa | 119.84
563.58 K, 8000 kPa | 312.82
563.84 K, 6000 kPa | 236.54
563.94 K, 4000 kPa | 124.51
564.02 K, 2500 kPa | 135.46
565.65 K, 5000 kPa | 187.87
572.57 K, 2500 kPa | 144.47
573.39 K, 10000 kPa | 345.21
574.33 K, 3000 kPa | 134.46
574.41 K, 8000 kPa | 287.41
574.85 K, 6000 kPa | 211.93
574.87 K, 5000 kPa | 160.49
575.28 K, 4000 kPa | 113.58
577.04 K, 5000 kPa | 154.18
579.18 K, 10000 kPa | 331.94
582.31 K, 5000 kPa | 142.67
582.39 K, 3000 kPa | 142.99
582.86 K, 10000 kPa | 325.02
583.1 K, 8000 kPa | 270.69
583.18 K, 6000 kPa | 191.45
584.19 K, 2500 kPa | 156.26
584.6 K, 4000 kPa | 122.55
587.85 K, 10000 kPa | 315.79
588.17 K, 5000 kPa | 139.88
590.48 K, 2500 kPa | 161.58
591.62 K, 4000 kPa | 127.84
591.77 K, 3000 kPa | 152.87
592.28 K, 5000 kPa | 136.41
592.57 K, 6000 kPa | 176.14
592.71 K, 10000 kPa | 307.49
593.19 K, 8000 kPa | 249.19
597.48 K, 5000 kPa | 135.43
601.6 K, 2500 kPa | 170.4
602.3 K, 5000 kPa | 135.26
602.84 K, 3000 kPa | 161.38
603.51 K, 10000 kPa | 291.2
603.68 K, 4000 kPa | 143.88
604.1 K, 6000 kPa | 161.83
604.67 K, 8000 kPa | 226
607.65 K, 5000 kPa | 136.72
612.08 K, 4000 kPa | 149.82
612.37 K, 3000 kPa | 167.57
612.58 K, 2500 kPa | 179.23
613.73 K, 6000 kPa | 158.49
613.93 K, 8000 kPa | 218.01
614.03 K, 10000 kPa | 272.94
615.11 K, 5000 kPa | 142.58
620.2 K, 8000 kPa | 211.6
620.87 K, 2500 kPa | 183.77
621.22 K, 4000 kPa | 157.32
622.48 K, 6000 kPa | 158.77
623.13 K, 10000 kPa | 260.67
623.25 K, 5000 kPa | 150.58
623.42 K, 3000 kPa | 174.58
631.85 K, 4000 kPa | 163.15
632.04 K, 3000 kPa | 179.96
632.18 K, 2500 kPa | 189.44
632.29 K, 5000 kPa | 156.55
632.41 K, 6000 kPa | 159.42
632.86 K, 8000 kPa | 201.03
640.72 K, 2500 kPa | 192.85
641.53 K, 3000 kPa | 186.21
641.95 K, 4000 kPa | 173.32
642.59 K, 8000 kPa | 195.65
643.04 K, 6000 kPa | 164.74
643.51 K, 5000 kPa | 165.41
650.07 K, 2500 kPa | 195.77
650.9 K, 3000 kPa | 189.41
